Measurements reported in patent US6627732B1, “Glutathione derivatives and their dosage forms” (Teijin Limited, priority 1998, dated 2003).

Assays:
swine liver esterase = test: Decomposition of glutathione derivatives by swine liver esterase (physiological stability); assay type: in vitro ADME; conditions: BSA/D-PBS pH 7.4, 196-244 μg/ml
Method: (§1) (1) Bovine serum albumin (hereinafter referred to as BSA), Dulbecco's phosphate buffered saline (hereinafter referred to as D-PBS), swine liver esterase, and rabbit liver esterase were purchased from Sigma, 6-week old male SD rats were purchased from Nippon SLC, and 12-week old or older male Japanese white rabbits were purchased from Ichikawaya. On the day of the incubation experiment described below, blood was drawn from the animals in the presence of heparin, and plasma was separated therefrom for use. Human plasma was obtained from normal healthy males after obtaining their consent.
(§2) (2) The glutathione derivatives described in the Examples and Comparative Examples of the present invention were incubated for a fixed time in an enzyme solution having the following composition. Acetonitrile was added to the reaction mixture to inactivate the enzyme thereby to stop the reaction. The concentration of the glutathione derivatives in the deproteinized supernatant was measured by HPLC. For each time point of the esterase enzyme experiment, the mean values from two measurement or more were determined, and for the rats and rabbits the mean values of plasma samples from three individuals were determined. For some of the experiment data, changes with time of percentages relative to initial concentration of the glutathione derivative are shown in FIGS. 2 to 4.
Swine liver esterase and rabbit liver esterase experiment
30 mg-BSA/ml-D-PBS (pH 7.4): 36 to 45 parts
Swine or rabbit liver esterase/D-PBS: 4-5 parts
10 mg-glutathione derivative/ml-ethanol: one part (the final concentration in the reaction mixture is 196-244 μg/ml)

[1] = Stability in rabbit plasma; conditions: rabbit, plasma
Method: as §1, §2
(§3) Rat, rabbit, and human plasma
(§4) Heparinized plasma: 30 to 40 parts
10 mg-glutathione derivative/ml-ethanol: one part (the final concentration in the reaction mixture is 250-323 μg/ml)

[2] = Stability in human plasma; assay type: in vitro ADME; conditions: heparinized plasma, 250-323 μg/ml
Description: as §3, §4

[3] = tested on: human leukemia cell HL-60; test: HL-60 cell differentiation induction, NBT reducing activity (Example 20); assay type: cell-based; conditions: 4 days
Method: Using the differentiation induction effect on the granulocytes or monocytes/macrophages obtained by culturing the human leukemia cell HL-60 in the presence of 9-cys-retinoic acid (9-cis-RA) or activated vitamin D3 (1α, 25(OH)2D3), and in the coexistence of the glutathione derivatives of Examples and the Comparative Examples of the present invention, the growth-promotion activity was tested.
(1) HL-60 cells used were purchased from the cell bank (Japanese Cancer Research Resource Bank, Cell No. JCRBOO85). In accordance with a standard method, the lyophilized cell stocks that were thawed before the start of the experiment and subcultured were used.
Subculturing was carried out by centrifuging (1500 rpm, 5 minutes) the cells in suspension culture and recovering and by diluting it in a fresh culture liquid at a concentration of about 1/100 (1 to 2×10^4 cells/ml). As the culture liquid, an RPMI 1640 medium containing 10% fetal bovine serum was used.
(2) The cells subcultured in (1) were recovered by centrifugation (1500 rpm, 5 minutes), and were dispersed in the culture liquid at 2×10^4 cells/ml, which were plated on a 24-well culture plate at 1 ml/well. To this system were added the glutathione derivatives of Example 4, Example 11, Comparative Example 1 and Comparative Example 2 and a differentiation induction substance (9-cis-RA or 1α, 25(OH)2D3). Thus, 1 μl per well each of an ethanol solution of the differentiation induction substances 9-cis-RA and 1α, 25(OH)2D3 were added at 5×10^−6 M and 2×10^−6 M, respectively. Then, 1 μl per well each of ethanol solutions of the glutathione derivatives at 1×10^−4 M to 1×10^−2 M was added. As the solvent treatment for the control, 1 μl of ethanol per well was added in stead of the glutathione derivative, and as the single treatment of glutathione derivatives, 1 μl of ethanol per well was added in stead of the differentiation induction substance. After culturing at 37° C. and 5% CO2 for 4 days, the cells were recovered by centrifugation (1500 rpm, 5 minutes).
(3) The measurement of a nitroblue tetrazolium (NBT) reducing activity which is often used for the evaluation of differentiation induction effects on monocytes/macrophages or granulocytic cells was carried out according to the following procedure. Thus, the cells recovered by centrifugation in (2) were suspended in a fresh culture medium, and then NBT was added thereto to […] and 12-O-tetradecanoyl phorbol-13-acetate to 100 nM. After incubating at 37° C. for 25 minutes, cytospin samples were prepared. After air drying, the cells were subjected to Kernechtrot stain, and 500 cells per sample were examined under alight microscope to determine the ratio of the NBT reduction activity-positive cells.
(4) The result of the experiment in which glutathione derivatives at 10^−7 to 10^−5 M were treated together with a differentiation induction substances is shown in Table 4. For a single treatment of each glutathione derivative up to 10^−5 M, no increases in the NBT reducing activity was observed. In a combined treatment of a glutathione derivative and a differentiation induction substance, an enhanced ratio of the NBT reduction activity-positive cells relative to the single treatment with a differentiation induction substance was observed depending on the concentration of the glutathione derivative. There were no major differences observed in the strength of effects between the glutathione derivatives of Examples 4 and 11 and Comparative Examples 1, and 2.

[4] = compound 10^−5 M, Solvent control (EtOH), no differentiation induction substance
[5] = compound 10^−5 M, with 1α,25(OH)2D3 (2 × 10^−9 M)
[6] = compound 10^−5 M, with 9-cis-RA (5 × 10^−9 M)
[7] = compound 10^−6 M, Solvent control (EtOH), no differentiation induction substance
[8] = compound 10^−6 M, with 1α,25(OH)2D3 (2 × 10^−9 M)
[9] = compound 10^−6 M, with 9-cis-RA (5 × 10^−9 M)
[10] = compound 10^−7 M, Solvent control (EtOH), no differentiation induction substance
[11] = compound 10^−7 M, with 1α,25(OH)2D3 (2 × 10^−9 M)
[12] = compound 10^−7 M, with 9-cis-RA (5 × 10^−9 M)

Row | Structure (SMILES) | Decomposition rate constant by swine liver esterase (swine liver esterase) | Half life in rabbit plasma [1] | Half life in human plasma [2] | Ratio of NBT reduction activity-positive cells [3, 4] | Ratio of NBT reduction activity-positive cells [3, 5] | Ratio of NBT reduction activity-positive cells [3, 6] | Ratio of NBT reduction activity-positive cells [3, 7] | Ratio of NBT reduction activity-positive cells [3, 8] | Ratio of NBT reduction activity-positive cells [3, 9] | Ratio of NBT reduction activity-positive cells [3, 10] | Ratio of NBT reduction activity-positive cells [3, 11] | Ratio of NBT reduction activity-positive cells [3, 12]
1 | CCCCCCCCOC(=O)[C@H](NC(=O)[C@H](CSCc1ccccc1)NC(=O)CC[C@H](N)C(=O)OCC)c1ccccc1.Cl [Comparative Example 2, Glu(Cys(Bzl)-D-Phg-O(Octyl))-O(Et)hydrochloride, reference compound] | 364 10^−4/unit/min | 3.97 h | 10.3 h | 0.6% | 18.2% | 33.2% | 0.4% | 9.3% | 15.2% | 0.2% | 4.6% | 7.4%
2 | CCCCCCCCCCCCCCCCOC(=O)[C@@H](N)CCC(=O)N[C@@H](CSCc1ccccc1)C(=O)N[C@@H](C(=O)OCC)c1ccccc1.Cl [Example 4, Glu(Cys(Bzl)-D-Phg-OEt)-O(Hexadecyl)hydrochloride] | 0.466 10^−4/unit/min | 22.05 h | 184.77 h | 0.2% | 31.3% | 18.0% | 0.2% | 10.3% | 10.4% | 0.2% | 5.7% | 6.7%
3 | CCOC(=O)[C@@H](N)CCC(=O)N[C@@H](CSCc1ccccc1)C(=O)N[C@@H](C(=O)OCC)c1ccccc1.Cl [Comparative Example 1, Glu(Cys(Bzl)-D-Phg-O(Et))-O(Et)hydrochloride, reference compound] | 121 10^−4/unit/min | 6.53 h | 10.7 h | 0.4% | 13.0% | 18.8% | 0.2% | 7.6% | 10.1% | 0.2% | 5.4% | 6.3%
